Laboratory results from patent publication US7666639B2, “Plant deoxyribonucleoside kinase enzymes and their use” (priority 2002, dated 2010).

Tested on: N-terminally deleted tomato dNK enzyme (TOM-ΔNdCK/dGK)
Assay: Deoxyribonucleoside kinase activity in extract of KY895 transformed with pGEX-2T-TOM-ΔNdCK/dGK
Type: biochemical, Lycopersicum esculentum
Details: pGEX-2T-TOM-ΔNdCK/dGK
Description: The E. coli strain KY895 (F^−, tdk-1, ilv) [Knecht W, Munch-Petersen B and Piskur J: Identification of residues involved in the specificity and regulation of the highly efficient multisubstrate deoxyribonucleoside kinase from Drosophila melanogaster; J. Mol. Biol. 2000 301 827-837] was transformed by various expression plasmids using standard techniques. Transformed KY895 strains were grown to an OD600 nm of 0.5-0.6 in LB/Ampicillin (100 μg/ml) medium at 37° C., and protein expression was induced by addition of 100 μM IPTG. The cells were further grown for 4 hours at 25° C. and subsequently harvested by centrifugation.
Pellets were stored at −80° C. until activity testing. Pellets were submitted to brief sonification in extraction buffer (50 mM Tris/HCl pH 7.5, 1 mM DTT, 10% (v/v) glycerol, 1% (v/v) Triton X-100, protease inhibitor cocktail (Complete™ from Roche Diagnostics).
Deoxyribonucleoside kinase activities were determined in the KY895 extracts by initial velocity measurements based on four time samples by the DE-81 filter paper assay using tritium-labelled nucleoside substrates. 4 to 20 μg extracts were used in the assays. The assay was done as described by Munch-Petersen et al. [Munch-Petersen, B., Knecht, W, Lenz, C., Sondergaard, L. & Piskur, J: Functional expression of a multisubstrate deoxyribonucleoside kinase from Drosophila melanogaster and its C-terminal deletion mutants; J. Biol. Chem. 2000 275 6673-6679].
The protein concentration was determined according to Bradford with BSA as standard protein [Bradford M M: A rapid and sensitive method for the quantitation of microgram quantities of protein utilizing the principle of protein-dye binding; Anal. Biochem. 1976 72 248-254]. SDS-PAGE was done according to the procedure of Laemmli [Laemmli U K: Cleavage of structural proteins during the assembly of the head of bacteriophage T4; Nature 1970 227 680-685], and proteins were visualized by Coomassie staining to verify recombinant protein expression.
The four natural deoxyribonucleosides were tested at a fixed concentration of 100 μM. The highest specific activity in each extract was set to 100%.

SMILES | ability to phosphorylate the deoxyribonucleoside (in words)
Nc1ncnc2c1ncn2[C@H]1C[C@H](O)[C@@H](CO)O1 [dAdo, deoxyadenosine] | able to phosphorylate
Nc1ccn([C@H]2C[C@H](O)[C@@H](CO)O2)c(=O)n1 [dCyd, deoxycytidine] | able to phosphorylate
